Converted amounts (≈) assume the structure as drawn.
Key:
[1] = tested on: MDA-MB-231; assay: Cytotoxicity against human MDA-MB-231 cells by MTT assay; type: functional, cell-based
[2] = tested on: MCF7; assay: Cytotoxicity against human MCF7 cells by MTT assay; type: functional, cell-based
[3] = tested on: SK-N-MC; assay: Cytotoxicity against human SK-N-MC cells by MTT assay; type: functional, cell-based
[4] = tested on: MCF7; assay: Ratio of etoposide IC50 to compound IC50 for human MCF7 cells by MTT assay; type: functional
[5] = tested on: SK-N-MC; assay: Ratio of etoposide IC50 to compound IC50 for human SK-N-MC cells by MTT assay; type: functional
[6] = tested on: MDA-MB-231; assay: Ratio of etoposide IC50 to compound IC50 for human MDA-MB-231 cells by MTT assay; type: functional

SMILES	IC50 [1] [µg/mL]	IC50 [2] [µg/mL]	IC50 [3] [µg/mL]	Ratio IC50 [4]	Ratio IC50 [5]	Ratio IC50 [6]
COc1cc(/C=C2\CCC/C(=C\c3ccc([N+](=O)[O-])cc3)C2=O)cc(Br)c1O	> 100	4.93 (≈ 11.1 µM)	16.8 (≈ 37.8 µM)			
COc1cccc(/C=C2\CCC/C(=C\c3ccc([N+](=O)[O-])cc3)C2=O)c1	51.4 (≈ 147 µM)	5.82 (≈ 16.7 µM)	11.5 (≈ 33 µM)			
O=C1/C(=C/c2ccc(Cl)cc2)CCC/C1=C\c1ccc([N+](=O)[O-])cc1	12.4 (≈ 35.1 µM)	1.02 (≈ 2.88 µM)	14 (≈ 39.7 µM)			
COc1cc(/C=C2\CCC/C(=C\c3cccc([N+](=O)[O-])c3)C2=O)cc(Br)c1OC	13.9 (≈ 30.4 µM)	4.72 (≈ 10.3 µM)	16.7 (≈ 36.4 µM)			
O=C1/C(=C/c2ccc([N+](=O)[O-])cc2)CCC/C1=C\c1cccc([N+](=O)[O-])c1	8.85 (≈ 24.3 µM)	8.4 (≈ 23.1 µM)	17.9 (≈ 49.1 µM)			
COc1cc(/C=C2\CCC/C(=C\c3ccc([N+](=O)[O-])cc3)C2=O)ccc1O	13.1 (≈ 35.8 µM)	7.05 (≈ 19.3 µM)	48 (≈ 131 µM)			
COc1cccc(/C=C2\CCC/C(=C\c3ccccc3[N+](=O)[O-])C2=O)c1	14.3 (≈ 41 µM)	5.62 (≈ 16.1 µM)	4.49 (≈ 12.9 µM)			
CCCOc1c(Br)cc(/C=C2\CCC/C(=C\c3cccc([N+](=O)[O-])c3)C2=O)cc1OC	2.99 (≈ 6.15 µM)	0.85 (≈ 1.75 µM)	1.51 (≈ 3.1 µM)	7	7	7
CCCOc1c(Br)cc(/C=C2\CCC/C(=C\c3ccccc3[N+](=O)[O-])C2=O)cc1OC	1.99 (≈ 4.09 µM)	4.14 (≈ 8.51 µM)	3.5 (≈ 7.2 µM)			10
COc1cccc(/C=C2\CCC/C(=C\c3ccc([N+](=O)[O-])cc3)C2=O)c1OC	6.73 (≈ 17.7 µM)	13.3 (≈ 35.1 µM)	22.1 (≈ 58.4 µM)			
COc1cccc(/C=C2\CCC/C(=C\c3cccc([N+](=O)[O-])c3)C2=O)c1OC	5.59 (≈ 14.7 µM)	5.14 (≈ 13.5 µM)	10.1 (≈ 26.6 µM)			
O=C1/C(=C/c2cccc(Cl)c2)CCC/C1=C\c1cccc([N+](=O)[O-])c1	5.01 (≈ 14.2 µM)	5.15 (≈ 14.6 µM)	4.15 (≈ 11.7 µM)			
COc1cccc(/C=C2\CCC/C(=C\c3cccc([N+](=O)[O-])c3)C2=O)c1	13.2 (≈ 37.7 µM)	4.17 (≈ 11.9 µM)	4.94 (≈ 14.1 µM)			
COc1ccc(/C=C2\CCC/C(=C\c3ccccc3[N+](=O)[O-])C2=O)cc1	45 (≈ 129 µM)	11.2 (≈ 32.1 µM)	75 (≈ 215 µM)			
CCCOc1c(Br)cc(/C=C2\CCC/C(=C\c3ccc([N+](=O)[O-])cc3)C2=O)cc1OC	4.01 (≈ 8.24 µM)	7.98 (≈ 16.4 µM)	23.3 (≈ 47.8 µM)			
COc1ccc(/C=C2\CCC/C(=C\c3cccc([N+](=O)[O-])c3)C2=O)cc1	44.7 (≈ 128 µM)	5.71 (≈ 16.3 µM)	10.4 (≈ 29.7 µM)			
COc1cc([C@@H]2c3cc4c(cc3[C@@H](O[C@@H]3O[C@@H]5CO[C@@H](C)O[C@H]5[C@H](O)[C@H]3O)[C@H]3COC(=O)[C@H]23)OCO4)cc(OC)c1O [ETOPOSIDE]	20.5 (≈ 34.9 µM)	18.4 (≈ 31.3 µM)	14 (≈ 23.9 µM)			
COc1cc(/C=C2\CCC/C(=C\c3ccc([N+](=O)[O-])cc3)C2=O)cc(Br)c1OC	8.71 (≈ 19 µM)	11 (≈ 24.1 µM)	9.86 (≈ 21.5 µM)			
CCCCOc1c(Br)cc(/C=C2\CCC/C(=C\c3cccc([N+](=O)[O-])c3)C2=O)cc1OC	5.53 (≈ 11.1 µM)	5.97 (≈ 11.9 µM)	25.3 (≈ 50.7 µM)			
COc1cc(/C=C2\CCC/C(=C\c3ccccc3[N+](=O)[O-])C2=O)cc(Br)c1OC	8.99 (≈ 19.6 µM)	3.35 (≈ 7.31 µM)	6.24 (≈ 13.6 µM)			
CCCCOc1c(Br)cc(/C=C2\CCC/C(=C\c3ccc([N+](=O)[O-])cc3)C2=O)cc1OC	8.38 (≈ 16.7 µM)	27 (≈ 54 µM)	41.3 (≈ 82.6 µM)			
CCOc1c(Br)cc(/C=C2\CCC/C(=C\c3cccc([N+](=O)[O-])c3)C2=O)cc1OC	19.3 (≈ 40.9 µM)	24.9 (≈ 52.7 µM)	10.8 (≈ 22.8 µM)			
CCOc1c(Br)cc(/C=C2\CCC/C(=C\c3ccc([N+](=O)[O-])cc3)C2=O)cc1OC	34.7 (≈ 73.5 µM)	3.08 (≈ 6.52 µM)	3.91 (≈ 8.28 µM)			

Reference: ChEMBL document CHEMBL1949511, “Asymmetrical 2,6-bis(benzylidene)cyclohexanones: Synthesis, cytotoxic activity and QSAR study” (Eur J Med Chem, 2012)
